According to ChEMBL document CHEMBL1149933, “Synthesis and structure-activity relationship of C-3 benzoyloxymethyl cephalosporins exhibiting anti-MRSA activities” (Bioorg Med Chem Lett, 1997):
≈ marks a conversion by molar mass, not a printed value.

Tests used:
Staphylococcus aureus [1] = assay: Inhibitory effect against methicillin resistant Staphylococcus aureus (A 27218), expressed as minimum inhibitory concentration; assay type: functional
Staphylococcus aureus [2] = assay: Inhibitory effect against methicillin resistant Staphylococcus aureus (A 27223), expressed as minimum inhibitory concentration; assay type: functional
Staphylococcus aureus [3] = assay: Inhibitory effect against methicillin resistant Staphylococcus aureus (A 27621), expressed as minimum inhibitory concentration; assay type: functional
Staphylococcus aureus [4] = assay: Inhibitory effect against methicillin susceptible Staphylococcus aureus (A 15090), expressed as minimum inhibitory concentration; assay type: functional
Staphylococcus aureus [5] = assay: Inhibitory effect against methicillin resistant Staphylococcus aureus (A 27217), expressed as minimum inhibitory concentration; assay type: functional
[6] = In vitro half life in human plasma was determined; assay type: ADME, cell-free
Mus musculus = assay: In vivo protective dose against MRSA (strain A 27223); assay type: functional; details: read-out: PD50
Staphylococcus aureus [7] = assay: Minimum inhibitory concentration against MRSA (strain A 27223)

Structure (SMILES) | MIC (Staphylococcus aureus [1]) [µg/mL] | MIC (Staphylococcus aureus [2]) [µg/mL] | MIC (Staphylococcus aureus [3]) [µg/mL] | MIC (Staphylococcus aureus [4]) [µg/mL] | MIC (Staphylococcus aureus [5]) [µg/mL] | half-life [6] [min] | ED50 (Mus musculus) [mg/kg] | MIC (Staphylococcus aureus [7]) [µg/mL]
Cc1ccc(C(=O)OCC2=C(C(=O)O)N3C(=O)[C@@H](NC(=O)CSc4cc(Cl)ccc4Cl)C3SC2)cc1 (stereo not given in full) | 0.06 (≈ 0.106 µM) | 0.5 (≈ 0.881 µM) | 0.25 (≈ 0.441 µM) | 0.125 (≈ 0.22 µM) | 0.5 (≈ 0.881 µM) |  |  | 
O=C(CSc1cc(Cl)ccc1Cl)N[C@@H]1C(=O)N2C(C(=O)O)=C(COC(=O)c3cccnc3)CSC12 (stereo not given in full) | 2 (≈ 3.61 µM) | 4 (≈ 7.21 µM) | 4 (≈ 7.21 µM) | 0.125 (≈ 0.225 µM) | 2 (≈ 3.61 µM) |  |  | 
CC(=O)Nc1ccc(C(=O)OCC2=C(C(=O)O)N3C(=O)[C@@H](NC(=O)CSc4cc(Cl)ccc4Cl)C3SC2)cc1 (stereo not given in full) | 0.5 (≈ 0.819 µM) | 1 (≈ 1.64 µM) | 1 (≈ 1.64 µM) | 0.06 (≈ 0.0983 µM) | 0.5 (≈ 0.819 µM) |  |  | 
C[n+]1ccc(C(=O)OCC2=C(C(=O)[O-])N3C(=O)[C@@H](NC(=O)CSc4cc(Cl)ccc4Cl)C3SC2)cc1 (stereo not given in full) | 2 (≈ 3.52 µM) | 32 (≈ 56.3 µM) | 32 (≈ 56.3 µM) | 0.125 (≈ 0.22 µM) | 8 (≈ 14.1 µM) |  |  | 
C[n+]1cccc(C(=O)OCC2=C(C(=O)[O-])N3C(=O)[C@@H](NC(=O)CSc4cc(Cl)ccc4Cl)C3SC2)c1 (stereo not given in full) | 32 (≈ 56.3 µM) | 64 (≈ 113 µM) | 64 (≈ 113 µM) | 0.5 (≈ 0.88 µM) | 64 (≈ 113 µM) |  |  | 
COc1ccc(C(=O)OCC2=C(C(=O)O)N3C(=O)[C@@H](NC(=O)CSc4cc(Cl)ccc4Cl)C3SC2)cc1 (stereo not given in full) | 0.125 (≈ 0.214 µM) | 0.5 (≈ 0.857 µM) | 0.5 (≈ 0.857 µM) | 0.06 (≈ 0.103 µM) | 0.06 (≈ 0.103 µM) |  |  | 
N#Cc1ccc(C(=O)OCC2=C(C(=O)O)N3C(=O)[C@@H](NC(=O)CSc4cc(Cl)ccc4Cl)C3SC2)cc1 (stereo not given in full) | 0.125 (≈ 0.216 µM) | 1 (≈ 1.73 µM) | 0.5 (≈ 0.864 µM) | 0.03 (≈ 0.0519 µM) | 0.125 (≈ 0.216 µM) |  |  | 
CN(C)c1ccc(C(=O)OCC2=C(C(=O)O)N3C(=O)[C@@H](NC(=O)CSc4cc(Cl)ccc4Cl)C3SC2)cc1 (stereo not given in full) | 0.125 (≈ 0.21 µM) | 0.25 (≈ 0.419 µM) | 0.25 (≈ 0.419 µM) | 0.06 (≈ 0.101 µM) | 0.125 (≈ 0.21 µM) | > 600 |  | 
O=C(CSc1cc(Cl)ccc1Cl)N[C@@H]1C(=O)N2C(C(=O)O)=C(COC(=O)c3ccncc3)CSC12 (stereo not given in full) | 0.5 (≈ 0.902 µM) | 8 (≈ 14.4 µM) | 4 (≈ 7.21 µM) | 0.06 (≈ 0.108 µM) | 1 (≈ 1.8 µM) |  |  | 
O=C(CSc1cc(Cl)ccc1Cl)N[C@@H]1C(=O)N2C(C(=O)O)=C(COC(=O)c3ccc(O)cc3)CSC12 (stereo not given in full) | 0.06 (≈ 0.105 µM) | 0.25 (≈ 0.439 µM) | 0.5 (≈ 0.878 µM) | 0.007 (≈ 0.0123 µM) | 0.06 (≈ 0.105 µM) |  |  | 
CC(=O)OCC1=C(C(=O)O)N2C(=O)[C@@H](NC(=O)CSc3cc(Cl)ccc3Cl)C2SC1 (stereo not given in full) |  |  |  |  |  | ~250 | 2 | 2 (≈ 4.07 µM)
CC(=O)Oc1ccc(C(=O)OCC2=C(C(=O)O)N3C(=O)[C@@H](NC(=O)CSc4cc(Cl)ccc4Cl)C3SC2)cc1 (stereo not given in full) | 0.06 (≈ 0.0981 µM) | 0.125 (≈ 0.204 µM) | 0.125 (≈ 0.204 µM) | 0.007 (≈ 0.0114 µM) | 0.06 (≈ 0.0981 µM) |  |  | 
O=C(CSc1cc(Cl)ccc1Cl)N[C@@H]1C(=O)N2C(C(=O)O)=C(COC(=O)c3ccccc3)CSC12 (stereo not given in full) | 0.5 (≈ 0.903 µM) | 1 (≈ 1.81 µM) | 1 (≈ 1.81 µM) | 0.06 (≈ 0.108 µM) | 1 (≈ 1.81 µM) | > 600 |  | 
O=C(CSc1cc(Cl)ccc1Cl)N[C@@H]1C(=O)N2C(C(=O)O)=C(COC(=O)c3ccc([N+](=O)[O-])cc3)CSC12 (stereo not given in full) | 0.25 (≈ 0.418 µM) | 2 (≈ 3.34 µM) | 2 (≈ 3.34 µM) | 0.06 (≈ 0.1 µM) | 0.25 (≈ 0.418 µM) |  |  | 
CN[C@H](CC(C)C)C(=O)N[C@H]1C(=O)N[C@@H](CC(N)=O)C(=O)N[C@H]2C(=O)N[C@H]3C(=O)N[C@H](C(=O)N[C@H](C(=O)O)c4cc(O)cc(O)c4-c4cc3ccc4O)[C@H](O)c3ccc(c(Cl)c3)Oc3cc2cc(c3O[C@@H]2O[C@H](CO)[C@@H](O)[C@H](O)[C@H]2O[C@H]2C[C@](C)(N)[C@H](O)[C@H](C)O2)Oc2ccc(cc2Cl)[C@H]1O [VANCOMYCIN] | 0.25 (≈ 0.173 µM) | 0.25 (≈ 0.173 µM) | 0.25 (≈ 0.173 µM) | 0.25 (≈ 0.173 µM) | 0.25 (≈ 0.173 µM) |  |  | 
